Structures can show the parent of a compound that is named as a salt.
What was measured:
[1] = molecular target: T1, HPK1 (Homo sapiens, UniProt Q92918); experiment: HPK1 kinase activity assay (ADP-Glo); conditions: HPK1 Kinase activity IC50 (nM), 1 nM HPK1, 10 μM ATP, 0.1 μg/μL MBP
T1 sequence (Q92918 1-346 limits assumed): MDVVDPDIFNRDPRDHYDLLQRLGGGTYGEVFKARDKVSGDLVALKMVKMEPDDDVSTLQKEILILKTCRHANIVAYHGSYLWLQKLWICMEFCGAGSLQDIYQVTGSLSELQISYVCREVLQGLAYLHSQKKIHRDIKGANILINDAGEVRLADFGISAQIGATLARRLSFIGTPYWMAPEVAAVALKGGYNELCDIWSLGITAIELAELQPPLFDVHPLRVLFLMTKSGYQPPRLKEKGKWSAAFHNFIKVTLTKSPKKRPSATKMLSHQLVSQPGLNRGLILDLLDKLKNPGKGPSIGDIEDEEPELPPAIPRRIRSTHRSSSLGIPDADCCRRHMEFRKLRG
Procedure: Preparation of buffer: 1× reaction buffer (40 mM Tris-HCl, 20 mM MgCl2, 0.01% Brij35, 50 μM DTT, 0.1 mg/ml BSA) was prepared using sterile water, which was prepared and used on the day of the experiment.
(§1) Preparation of 1000× drug stock plate: a 1000× compound stock plate was prepared. […] The compound stock plate was sealed with a sealing film and stored in a −20° C. refrigerator for later use.
Compound preparation and dosing: the 1000× drug stock plate was taken and melted at room temperature in the dark. Then 5× drug intermediate plate was prepared using reaction buffer and mixed well. 2 μL was transferred from the 5× drug intermediate plate into a 384-well plate, and negative control well and positive control well (in which 2 μL reaction buffer containing 0.5% DMSO was added) were set. Each point was repeated twice.
Preparation and incubation of reaction mixture: HPK1 protein was diluted to a 2.5× working solution with reaction buffer. 4 μL 2.5×HPK1 protein was added to each well containing test compound and positive control well, and 4 μL of reaction buffer without HPK1 protein was added to the negative control well. The obtained mixture was centrifuged at 1000 rpm for 1 min and then incubated in a 20° C. incubator for 15 min. A 2.5× mixed working solution of MBP protein and ATP was prepared with reaction buffer at concentrations of 0.5 μg/μL and 50 PM, respectively. 4 μL of the mixed working solution of MBP and ATP was added to each well, centrifuged at 1000 rpm for 1 min, and then incubated in a 20° C. incubator for 90 min.
ADP-Glo detection and reading plate: 10 μl ADP-Glo was added to each well of the test plate. The resulting mixture was centrifuged at 1000 rpm for 1 min and incubated in a 20° C. incubator for 60 min. Then 10 μL of the final incubation solution was transferred from the test plate to a new 384-well plate. 10 μL of kinase detection reagent was added to each well, centrifuged at 400 g for 1 min, and incubated in a 20° C. incubator for 60 min. Chemiluminescent signals were read by a microplate reader.

[2] = molecular target: HPK1 (Homo sapiens, UniProt Q92918); experiment: SLP76 phosphorylation assay (intracellular HPK1 inhibitory activity, p-SLP76 Ser376 sandwich ELISA); conditions: p-SLP76 IC50(nM), Jurkat, Clone E6-1 cells; 1 h compound pre-incubation, anti-CD3 beads stimulation 20 min; SLP76 phosphorylation at S376
Target sequence in this assay (Q92918 whole entry): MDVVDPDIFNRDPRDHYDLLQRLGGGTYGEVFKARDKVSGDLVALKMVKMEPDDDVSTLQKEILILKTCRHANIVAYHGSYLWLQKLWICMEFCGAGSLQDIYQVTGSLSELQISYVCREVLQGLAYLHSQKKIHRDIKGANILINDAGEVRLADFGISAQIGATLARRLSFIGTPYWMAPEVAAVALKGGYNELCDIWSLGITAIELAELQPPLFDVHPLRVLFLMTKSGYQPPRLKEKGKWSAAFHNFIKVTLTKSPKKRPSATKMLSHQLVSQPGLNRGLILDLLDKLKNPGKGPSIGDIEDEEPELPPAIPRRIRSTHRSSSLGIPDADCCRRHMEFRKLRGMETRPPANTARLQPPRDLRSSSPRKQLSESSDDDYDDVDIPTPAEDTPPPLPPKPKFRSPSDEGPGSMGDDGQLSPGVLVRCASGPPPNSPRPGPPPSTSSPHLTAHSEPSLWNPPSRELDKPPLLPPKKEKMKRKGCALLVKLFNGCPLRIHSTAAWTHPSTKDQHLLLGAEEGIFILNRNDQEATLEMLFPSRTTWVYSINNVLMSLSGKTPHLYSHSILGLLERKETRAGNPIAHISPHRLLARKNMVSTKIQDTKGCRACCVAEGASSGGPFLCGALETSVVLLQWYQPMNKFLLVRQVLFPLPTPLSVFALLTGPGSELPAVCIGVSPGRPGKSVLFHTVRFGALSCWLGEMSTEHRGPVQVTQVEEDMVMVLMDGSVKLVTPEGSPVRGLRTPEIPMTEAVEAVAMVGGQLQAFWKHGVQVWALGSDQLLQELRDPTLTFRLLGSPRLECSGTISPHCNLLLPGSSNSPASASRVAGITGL
Procedure: Intracellular HPK1 inhibitory activity was tested by the detection of SLP76 phosphorylation at S376.
as §1
Preparation of Beads wash buffer: 0.1 mL FBS and 0.4 mL 0.5 M EDTA (with a final concentration of 2 mM) were added to 100 mL PBS and stored in a 4° C. refrigerator for later use.
100× Protease Inhibitor Cocktail in 1/20 total volume was added and stored on wet ice for later use. The buffer was ready to use.
Cell inoculation and dosing: the 1000× drug stock plate was taken and melted at room temperature in the dark. […] Jurkat cells in the logarithmic growth phase were selected and collected. […] The cells were inoculated into a 96-well plate (the volume was 90 μL per well), and a blank control well (without cells inoculation, and in which 110 μL of medium was added) was set. 10 μL of a drug-containing culture medium (10×) was transferred from the 10× drug intermediate plate into the 96-well cell plate (with a final concentration of 0.1% DMSO), and set a DMSO control group (in which 0.1% DMSO was added to the treated cells), a stimulated control group (in which 10 μL of culture medium was added to treat cells) and an unstimulated group (in which 10 μL of culture medium was added to treat cells). The wells were duplicated, gently patted, mixed, and then placed into a 5% CO2 incubator at 37° C. for 1 h.
Anti-CD3 beads stimulation: Dynabeads anti-human CD3 was taken, shaken, and mixed for 60 s. The required volume of beads was pipetted, and an equal volume or at least 1 mL of washing solution was added to wash once. Fresh complete medium was then added to resuspend and adjust the density of the beads to 4×10^7/mL, and the beads were placed on ice for later use. At the end of drug pre-incubation, the cell culture plate was taken out. 10 μL Dynabeads anti-human CD3 was added to each well to treat the cells, and 10 μL the culture medium was added to the unstimulated group. The cell culture plate was shaken to mix well at 2500 rpm for 10 s, and then placed into a 5% CO2 incubator at 37° C. and continued to culture for 20 min.
Detection of p-SLP76 protein level. PathScan Phospho-SLP-76 (Ser376) Sandwich ELISA Kit was applied to detect p-SLP76 protein level. At the end of the Anti-CD3 beads stimulation, the cell culture plate was removed from the incubator. […] After lysis, the cell culture plate was centrifuged at 4° C., 400×g for 5 min. 25 μL of sample and 75 μL of sample diluent were added to each well, and the plate was placed in a 5% CO2 incubator at 37° C. for 2 h. The subsequent detection steps were carried out following the kit instructions, and the absorbance (OD value) of each well was read at 450 nm by a microplate reader.

| Compound | IC50 [1] | IC50 [2] |
| --- | --- | --- |
| Cc1c[nH]c2ncc(-c3cc4c(c([C@@H]5CCCN5)c3)CN(C(=O)c3cn(C(C)C)nc3C(F)(F)F)CC4)cc12 [Compound Z348, (S)-[1-isopropyl-3-(trifluoromethyl)-1H-pyrazol-4-yl]-[6-(3-methyl-1H-pyrrolo[2,3-b]pyridin-5-yl)-8-[pyrrolidin-2-yl]-3,4-dihydroisoquinolin-2(1H)-yl]methanone] | 0.75 nM | 183 nM |
| Cc1c[nH]c2ncc(-c3cc4c(c([C@@H]5CCCN5)c3)CCN(C(=O)[C@@](C)(O)C(F)(F)F)C4)cc12 [Compound Z285, (R)-3,3,3-trifluoro-2-hydroxy-2-methyl-1-(7-(3-methyl-1H-pyrrolo[2,3-b]pyridin-5-yl)-5-((S)-pyrrolidin-2-yl)-3,4-dihydroisoquinolin-2(1H)-yl)propan-1-one] | 0.91 nM | 323 nM |
| CO[C@H]1CCN(C(=O)N2CCc3cc(-c4cnc5[nH]cc(C)c5c4)cc([C@@H]4CCCN4)c3C2)C1 [Compound Z357-1] | 0.31 nM | 99.3 nM |
| Nc1ncc(-c2cc3c(c(C4CCCN4)c2)COCC3)cc1-c1cn[nH]c1 (stereo not shown) [Compound Z93, 3-(1H-pyrazol-4-yl)-5-(8-(pyrrolidin-2-yl)isochroman-6-yl)pyridin-2-amine formate] | 1.62 nM | 439 nM |
| Cc1c[nH]c2ncc(-c3cc4c(c(CN5CCCC5)c3)COCC4)cc12 [Compound Z109, 3-methyl-5-(8-(pyrrolidin-1-ylmethyl)isochroman-6-yl)-1H-pyrrolo[2,3-b]pyridine] | 9.78 nM | 1060 nM |
| CC(C#N)c1c[nH]c2ncc(-c3cc4c(c([C@@H]5CCCN5)c3)COCC4)cc12 (stereo partly drawn) [Compound Z104, 2-(5-(8-((S)-pyrrolidin-2-yl)isochroman-6-yl)-1H-pyrrolo[2,3-b]pyridin-3-yl)propanenitrile] | 0.29 nM | 77 nM |
| Cc1c[nH]c2ncc(-c3cc4c(c(C5CCCN5)c3)COCC4)cc12 (stereo not shown) [Compound Z97, 3-methyl-5-(8-(pyrrolidin-2-yl)isochroman-6-yl)-1H-pyrrolo[2,3-b]pyridine] | 1.54 nM | 377 nM |
| Cc1c[nH]c2ncc(-c3cc4c(c([C@@H]5CCCN5)c3)CN(C(=O)N3CCOC[C@@H]3C)CC4)cc12 [Compound Z358-1] | 0.23 nM | 67.4 nM |
| Cc1c[nH]c2ncc(-c3cc4c(c([C@@H]5CCCN5)c3)CN(C(=O)c3cnc(C5CC5)nc3)CC4)cc12 [Compound Z351, (S)-(2-cyclopropylpyrimidin-5-yl)(6-(3-methyl-1H-pyrrolo[2,3-b]pyridin-5-yl)-8-(pyrrolidin-2-yl)-3,4-dihydroisoquinolin-2(1H)-yl)methanone] | 0.87 nM | 126 nM |
| Cc1c[nH]c2ncc(-c3cc4c(c([C@@H]5CCCN5)c3)CN(CC3(O)CCOCC3)CC4)cc12 [Compound Z437] | 0.58 nM | 119 nM |
| CN(C)C(=O)c1ccc(-c2c[nH]c3ncc(-c4cc5c(c([C@@H]6CCCN6)c4)COCC5)cc23)cn1 [Compound Z54-1, (S)—N,N-dimethyl-5-(5-(8-(pyrrolidin-2-yl)isochroman-6-yl)-1H-pyrrolo[2,3-b]pyridin-3-yl)pyridine carboxamide] | 0.6 nM | 401 nM |
| Cc1c[nH]c2ncc(-c3cc4c(c([C@@H]5CCCN5)c3)CN(C(=O)c3cnn(C(C)C)c3C(F)(F)F)CC4)cc12 [Compound Z438, (S)-[1-isopropyl-5-(trifluoromethyl)-1H-pyrazol-4-yl]-[6-(3-methyl-1H-pyrrolo[2,3-b]pyridin-5-yl)-8-[pyrrolidin-2-yl]-3,4-dihydroisoquinolin-2(1H)-yl]methanone] | 1.13 nM | 339 nM |
| Cc1c[nH]c2ncc(-c3cc4c(c([C@@H]5CCCN5)c3)CCN(S(C)(=O)=O)C4)cc12 [Compound Z88-1, (S)-7-(3-methyl-1H-pyrrolo[2,3-b]pyridin-5-yl)-2-(methylsulfonyl)-5-(pyrrolidin-2-yl)-1,2,3,4-tetrahydroisoquinoline] | 0.38 nM | 91.3 nM |
| FC(F)(F)c1c[nH]c2ncc(-c3cc(C4CCCN4)c4cnccc4c3)cc12 (stereo not shown) [Compound Z96, 6-(3-(trifluoromethyl)-1H-pyrrolo[2,3-b]pyridin-5-yl)-8-(pyrrolidin-2-yl)isoquinoline] | 4.13 nM | 1000 nM |
| Cc1c[nH]c2ncc(-c3cc4c(c([C@@H]5CCCN5)c3)CCN(C3CCOCC3)C4)cc12 [Compound Z401, (S)-7-(3-methyl-1H-pyrrolo[2,3-b]pyridin-5-yl)-5-(pyrrolidin-2-yl)-2-(tetrahydro-2H-pyran-4-yl)-1,2,3,4-tetrahydroisoquinoline] | 3.19 nM | 462 nM |
| CC(C)(O)C(=O)N1CCc2cc(-c3cnc4[nH]cc(Cl)c4c3)cc([C@@H]3COCCN3)c2C1 [Compound Z418-1] | 0.19 nM | 61.3 nM |
| CCNC(=O)N1CCc2c(cc(-c3cnc4[nH]cc(C)c4c3)cc2[C@@H]2CCCN2)C1 [Compound Z295, (S)—N-ethyl-7-(3-methyl-1H-pyrrolo[2,3-h]pyridin-5-yl)-5-(pyrrolidin-2-yl)-3,4-dihydroisoquinoline-2(1H)-carboxamide] | 1.22 nM | 214 nM |
| COc1cc(N2CCc3cc(-c4cnc5[nH]cc(C)c5c4)cc([C@@H]4CCCN4)c3C2)ccn1 [Compound Z344, (S)-2-(2-methoxypyridin-4-yl)-6-(3-methyl-1H-pyrrolo[2,3-b]pyridin-5-yl)-8-(pyrrolidin-2-yl)-1,2,3,4-tetrahydroisoquinoline] | 1.52 nM | 386 nM |
| CC(C)c1c[nH]c2ncc(-c3cc4c(c([C@@H]5COCCN5)c3)CN(C(=O)C3(O)CC3)CC4)cc12 [Compound Z433, (R)-(1-hydroxycyclopropyl)(6-(3-isopropyl-1H-pyrrolo[2,3-b]pyridin-5-yl)-8-(morpholin-3-yl)-3,4-dihydroisoquinolin-2(1H)-yl)methanone] | 0.22 nM | 111 nM |
| Cc1c[nH]c2ncc(-c3cc4c(c([C@@H]5CCCN5)c3)CN(c3ccncn3)CC4)cc12 [Compound Z315, (S)-6-(3-methyl-1H-pyrrolo[2,3-b]pyridin-5-yl)-2-(pyrimidin-4-yl)-8-(pyrrolidin-2-yl)-1,2,3,4-tetrahydroisoquinoline] | 0.29 nM | 225 nM |
| Cc1c[nH]c2ncc(-c3cc4c(c([C@@H]5CCCN5)c3)CN(C(=O)N3CCC(F)(F)CC3)CC4)cc12 [Compound Z440, (S)-(4,4-difluoropiperidin-1-yl)(6-(3-methyl-1H-pyrrolo[2,3-b]pyridin-5-yl)-8(pyrrolidin-2-yl)-3,4-dihydroisoquinolin-2(1H)-yl)methanone] | 0.37 nM | 142 nM |
| COC(=O)N1CCc2c(cc(-c3cnc4[nH]cc(C)c4c3)cc2[C@@H]2CCCN2)C1 [Compound Z305, methyl (S)-7-(3-methyl-1H-pyrrolo[2,3-b]pyridin-5-yl)-5-(pyrrolidin-2-yl)-3,4-dihydroisoquinoline-2(1H)-carboxylate] | 0.84 nM | 297 nM |
| Cc1c[nH]c2ncc(-c3cc4c(c([C@@H]5CCCN5)c3)CN(CC3CCOCC3)CC4)cc12 [Compound Z442, (S)-6-(3-methyl-1H-pyrrolo[2,3-b]pyridin-5-yl)-8-(pyrrolidin-2-yl)-2-((tetrahydro-2H-pyran-4-yl)methyl)-1,2,3,4-tetrahydroisoquinoline] | 1.5 nM | 412 nM |
| CN(C)Cc1cc(-c2cnc3[nH]cc(Cl)c3c2)cc2c1COCC2 [Compound Z233, 1-(6-(3-chloro-1H-pyrrolo[2,3-b]pyridin-5-yl)isochroman-8-yl)-N,N-dimethylmethanamine] | 4.01 nM | 520 nM |
| Cc1ncc(N2CCc3c(cc(-c4cnc5[nH]cc(C)c5c4)cc3[C@@H]3CCCN3)C2)s1 [Compound Z38-1, (S)-7-(3-methyl-1H-pyrrolo[2,3-b]pyridin-5-yl)-2-(2-methylthiazol-5-yl)-5-(pyrrolidin-2-yl)-1,2,3,4-tetrahydroisoquinoline] | 2.97 nM | 719 nM |
| Cc1c[nH]c2ncc(-c3cc4c(c([C@@H]5CCCN5)c3)CCN(C(=O)C3CCOCC3)C4)cc12 [Compound Z312, (S)-1-[7-(3-methyl-1H-pyrrolo[2,3-b]pyridin-5-yl)-5-[pyrrolidin-2-yl]-3,4-dihydroisoquinolin-2(1H)-yl](tetrahydro-2H-pyran-4-yl)methanone] | 0.47 nM | 88.4 nM |
| N#CCc1c[nH]c2ncc(-c3cc4c(c(C5CCCN5)c3)COCC4)cc12 (stereo not shown) [Compound Z101, 2-(5-(8-(pyrrolidin-2-yl)isochroman-6-yl)-1H-pyrrolo[2,3-b]pyridin-3-yl)acetonitrile] | 0.49 nM | 163 nM |
| C[C@](O)(C(=O)N1CCc2cc(-c3cnc4[nH]cc(Cl)c4c3)cc([C@@H]3CCCN3)c2C1)C(F)(F)F [Compound Z405, (S)-1-(6-(3-chloro-1H-pyrrolo[2,3-b]pyridin-5-yl)-8-((S)-pyrrolidin-2-yl)-3,4-dihydroisoquinolin-2(1H)-yl)-3,3,3-trifluoro-2-hydroxy-2-methylpropan-1-one] | 0.23 nM | 89.8 nM |
| Cc1c[nH]c2ncc(-c3cc4c(c([C@@H]5CCCN5)c3)CN(S(=O)(=O)C3CC3)CC4)cc12 [Compound Z251, (S)-2-(cyclopropylsulfonyl)-6-(3-methyl-1H-pyrrolo[2,3-b]pyridin-5-yl)-8-(pyrrolidin-2-yl)-1,2,3,4-tetrahydroisoquinoline] | 0.49 nM | 131 nM |

— US20240182465A1 (GENFLEET THERAPEUTICS (SHANGHAI) INC., priority 2021, published 2024)
